From ChEMBL document CHEMBL5226289, “Discovery of natural anti-inflammatory alkaloids: Potential leads for the drug discovery for the treatment of inflammation” (Eur J Med Chem, 2021)

Tests used:
[1] = target: T1, Acid-sensing ion channel 1 (Rattus norvegicus) (UniProt P55926); test: Inhibition of rat ASIC1a ion channel expressed in Xenopus laevis oocytes in pH 6.5 buffer at -50 mV holding potential by voltage clamp electrophysiology recording; format: cell-based
T1 sequence (whole entry): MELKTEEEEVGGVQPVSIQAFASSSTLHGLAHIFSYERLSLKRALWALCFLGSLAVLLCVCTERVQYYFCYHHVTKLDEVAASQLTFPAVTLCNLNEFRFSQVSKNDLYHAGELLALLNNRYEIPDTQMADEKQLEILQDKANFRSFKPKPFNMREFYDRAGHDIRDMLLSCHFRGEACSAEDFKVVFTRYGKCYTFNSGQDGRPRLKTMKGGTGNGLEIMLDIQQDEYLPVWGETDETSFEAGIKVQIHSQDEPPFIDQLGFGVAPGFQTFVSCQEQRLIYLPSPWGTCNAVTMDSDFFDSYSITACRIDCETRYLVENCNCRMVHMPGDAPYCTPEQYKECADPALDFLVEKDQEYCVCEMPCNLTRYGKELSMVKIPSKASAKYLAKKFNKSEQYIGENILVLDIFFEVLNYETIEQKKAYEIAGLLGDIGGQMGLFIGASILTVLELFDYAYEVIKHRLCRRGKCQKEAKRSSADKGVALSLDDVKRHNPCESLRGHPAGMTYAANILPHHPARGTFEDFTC

[2] = target: T1, Acid-sensing ion channel 1 (Rattus norvegicus); test: Inhibition of rat ASIC1a ion channel expressed in Xenopus laevis oocytes in pH 6.7 buffer at -50 mV holding potential by voltage clamp electrophysiology recording; format: cell-based
[3] = target: T1, Acid-sensing ion channel 1 (Rattus norvegicus); test: Inhibition of rat ASIC1a ion channel expressed in Xenopus laevis oocytes in pH 6.9 buffer at -50 mV holding potential by voltage clamp electrophysiology recording; format: cell-based
Mus musculus [4] = test: Prevention of LPS-induced mortality in C57BL/6 mouse model at 30 mg/kg, ip measured after 5 days relative to control; format: functional; conditions: time 5 day
[5] = target: Prostaglandin G/H synthase 1 (Homo sapiens, UniProt P23219); test: Inhibition of COX-1 (unknown origin) by colorimetric analysis
Sequence of Prostaglandin G/H synthase 1 (P23219 whole entry): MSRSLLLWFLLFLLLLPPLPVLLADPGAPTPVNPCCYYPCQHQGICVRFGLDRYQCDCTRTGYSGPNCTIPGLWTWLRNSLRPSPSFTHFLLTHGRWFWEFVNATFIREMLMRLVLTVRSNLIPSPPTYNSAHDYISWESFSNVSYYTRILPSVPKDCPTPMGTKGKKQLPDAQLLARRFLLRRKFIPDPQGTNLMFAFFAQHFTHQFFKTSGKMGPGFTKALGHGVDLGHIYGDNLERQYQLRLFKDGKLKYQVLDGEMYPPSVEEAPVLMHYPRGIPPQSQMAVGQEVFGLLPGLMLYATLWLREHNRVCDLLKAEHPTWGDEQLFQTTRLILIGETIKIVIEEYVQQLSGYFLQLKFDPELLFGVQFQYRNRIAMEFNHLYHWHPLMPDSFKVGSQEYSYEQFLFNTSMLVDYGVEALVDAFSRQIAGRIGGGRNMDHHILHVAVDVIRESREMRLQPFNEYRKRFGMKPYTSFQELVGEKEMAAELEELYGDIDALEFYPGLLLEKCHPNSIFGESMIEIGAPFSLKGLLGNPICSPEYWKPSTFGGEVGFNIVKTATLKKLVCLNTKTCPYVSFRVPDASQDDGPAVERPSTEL

[6] = target: T2, Prostaglandin G/H synthase 2 (Homo sapiens, UniProt P35354); test: Inhibition of COX-2 (unknown origin) by colorimetric analysis
T2 sequence (P35354 whole entry): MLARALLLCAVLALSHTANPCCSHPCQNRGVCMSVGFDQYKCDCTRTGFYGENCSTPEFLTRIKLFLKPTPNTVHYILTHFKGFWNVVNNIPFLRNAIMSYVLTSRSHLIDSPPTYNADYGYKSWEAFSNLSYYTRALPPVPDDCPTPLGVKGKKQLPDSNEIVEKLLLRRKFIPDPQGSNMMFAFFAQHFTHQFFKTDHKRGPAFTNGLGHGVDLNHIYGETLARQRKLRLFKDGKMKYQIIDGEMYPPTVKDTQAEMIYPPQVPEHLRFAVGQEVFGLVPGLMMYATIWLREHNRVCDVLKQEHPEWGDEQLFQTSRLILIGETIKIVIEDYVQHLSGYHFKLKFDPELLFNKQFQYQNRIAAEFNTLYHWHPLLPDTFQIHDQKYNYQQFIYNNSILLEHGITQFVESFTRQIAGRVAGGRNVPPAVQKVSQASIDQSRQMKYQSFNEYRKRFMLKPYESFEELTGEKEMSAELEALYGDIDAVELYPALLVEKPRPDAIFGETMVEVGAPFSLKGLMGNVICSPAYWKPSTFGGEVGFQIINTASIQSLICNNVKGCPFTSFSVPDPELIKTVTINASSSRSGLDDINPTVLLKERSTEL

[7] = Antiinflammatory activity in rat polymorphonuclear leucocyte cells assessed as inhibition of PAF-induced beta-glucuronidase release at 10 uM preincubated for 20 mins followed by PAF addition relative to control; format: functional
RAW264.7 [8] = test: Inhibition of NO production in LPS-stimulated mouse RAW264.7 cells preincubated with compound for 30 mins followed by LPS stimulation and measured after 24 hrs by Griess reagent-based assay; format: functional, cell-based
[9] = Inhibition of NO production in LPS-induced mouse N9 cells incubated for 48 hrs by griess reagent based assay; format: functional, cell-based; conditions: N9, 48 h
THP-1 [10] = test: Antiinflammatory activity in human THP-1 cells assessed as inhibition of TNF-alpha production; format: functional
THP-1 [11] = test: Antiinflammatory activity in human THP-1 cells assessed as inhibition of IL-6 production; format: functional
Mus musculus [12] = test: Antiinflammatory activity in mouse assessed as inhibition of xylene-induced ear edema at 10 mg/kg, IG pre-treated for 30 mins followed by xylene administration and measured after 1 hrs relative to control; format: functional; conditions: po, time 1.5 hrs
[13] = target: T3, Polyunsaturated fatty acid 5-lipoxygenase (Homo sapiens) (UniProt P09917); test: Inhibition of 5-LOX (unknown origin) at 100 uM measured after 5 mins by colorimetric method relative to control
T3 sequence (whole entry): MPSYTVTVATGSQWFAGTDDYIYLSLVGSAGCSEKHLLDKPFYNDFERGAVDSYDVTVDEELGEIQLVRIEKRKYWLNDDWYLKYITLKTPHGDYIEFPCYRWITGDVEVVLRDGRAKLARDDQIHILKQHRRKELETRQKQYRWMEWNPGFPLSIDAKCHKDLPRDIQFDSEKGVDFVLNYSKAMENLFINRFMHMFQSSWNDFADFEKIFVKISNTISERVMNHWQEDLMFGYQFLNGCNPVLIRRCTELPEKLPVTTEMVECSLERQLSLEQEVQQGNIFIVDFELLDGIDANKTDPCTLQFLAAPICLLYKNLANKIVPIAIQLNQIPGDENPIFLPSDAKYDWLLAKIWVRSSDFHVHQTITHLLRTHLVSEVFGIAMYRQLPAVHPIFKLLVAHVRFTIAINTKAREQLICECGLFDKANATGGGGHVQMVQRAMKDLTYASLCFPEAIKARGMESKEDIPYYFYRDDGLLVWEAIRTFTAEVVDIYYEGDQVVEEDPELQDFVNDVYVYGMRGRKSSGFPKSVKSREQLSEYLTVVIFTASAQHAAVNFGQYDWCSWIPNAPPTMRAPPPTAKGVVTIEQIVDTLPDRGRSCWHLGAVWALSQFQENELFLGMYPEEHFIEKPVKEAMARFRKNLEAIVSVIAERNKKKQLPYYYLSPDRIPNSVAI

Mus musculus [14] = test: Antiinflammatory activity in mouse assessed as inhibition of xylene-induced ear edema at 5 mg/kg, IG pre-treated for 30 mins followed by xylene administration and measured after 1 hrs relative to control; format: functional; conditions: po, time 1.5 hrs
[15] = target: Nuclear factor NF-kappa-B complex (Homo sapiens) (UniProt Q00653+P19838+Q04206); test: Inhibition of TNF-alpha induced NFkappaB activation in HEK293 cells at 100 uM pretreated for 15 mins followed by stimulation with human recombinant TNFalpha and measured after 6 hrs by luminescence based assay relative to control; format: cell-based; conditions: time 375.0 min
Sequence of Nuclear factor NF-kappa-B complex (Homo sapiens) (P19838 whole entry, looked up): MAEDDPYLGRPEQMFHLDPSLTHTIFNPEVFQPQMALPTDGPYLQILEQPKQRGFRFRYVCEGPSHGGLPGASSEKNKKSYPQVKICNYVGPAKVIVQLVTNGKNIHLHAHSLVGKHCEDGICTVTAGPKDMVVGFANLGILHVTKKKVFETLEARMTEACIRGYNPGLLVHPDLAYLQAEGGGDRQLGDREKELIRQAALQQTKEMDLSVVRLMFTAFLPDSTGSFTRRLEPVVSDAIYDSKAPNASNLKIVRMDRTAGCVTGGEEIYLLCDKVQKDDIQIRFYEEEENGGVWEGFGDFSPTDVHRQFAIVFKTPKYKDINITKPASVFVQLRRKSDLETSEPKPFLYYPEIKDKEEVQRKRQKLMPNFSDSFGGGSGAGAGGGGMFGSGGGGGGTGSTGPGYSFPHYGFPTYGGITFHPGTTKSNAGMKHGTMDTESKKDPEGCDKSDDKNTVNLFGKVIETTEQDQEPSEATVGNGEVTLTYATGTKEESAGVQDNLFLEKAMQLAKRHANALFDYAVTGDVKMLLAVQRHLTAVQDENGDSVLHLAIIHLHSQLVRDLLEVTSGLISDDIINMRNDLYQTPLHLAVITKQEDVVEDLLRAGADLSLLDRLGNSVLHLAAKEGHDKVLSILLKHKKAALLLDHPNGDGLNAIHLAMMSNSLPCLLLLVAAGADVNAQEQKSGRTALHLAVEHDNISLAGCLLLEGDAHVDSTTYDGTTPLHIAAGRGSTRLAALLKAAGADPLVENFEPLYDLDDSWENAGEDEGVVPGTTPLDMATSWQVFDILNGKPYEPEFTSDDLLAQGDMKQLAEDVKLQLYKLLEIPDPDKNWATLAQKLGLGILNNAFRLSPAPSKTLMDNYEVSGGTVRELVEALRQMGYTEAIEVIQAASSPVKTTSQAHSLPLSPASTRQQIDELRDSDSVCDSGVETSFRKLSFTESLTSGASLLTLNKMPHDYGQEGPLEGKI
Sequence of Nuclear factor NF-kappa-B complex (Homo sapiens) (Q00653 whole entry, looked up): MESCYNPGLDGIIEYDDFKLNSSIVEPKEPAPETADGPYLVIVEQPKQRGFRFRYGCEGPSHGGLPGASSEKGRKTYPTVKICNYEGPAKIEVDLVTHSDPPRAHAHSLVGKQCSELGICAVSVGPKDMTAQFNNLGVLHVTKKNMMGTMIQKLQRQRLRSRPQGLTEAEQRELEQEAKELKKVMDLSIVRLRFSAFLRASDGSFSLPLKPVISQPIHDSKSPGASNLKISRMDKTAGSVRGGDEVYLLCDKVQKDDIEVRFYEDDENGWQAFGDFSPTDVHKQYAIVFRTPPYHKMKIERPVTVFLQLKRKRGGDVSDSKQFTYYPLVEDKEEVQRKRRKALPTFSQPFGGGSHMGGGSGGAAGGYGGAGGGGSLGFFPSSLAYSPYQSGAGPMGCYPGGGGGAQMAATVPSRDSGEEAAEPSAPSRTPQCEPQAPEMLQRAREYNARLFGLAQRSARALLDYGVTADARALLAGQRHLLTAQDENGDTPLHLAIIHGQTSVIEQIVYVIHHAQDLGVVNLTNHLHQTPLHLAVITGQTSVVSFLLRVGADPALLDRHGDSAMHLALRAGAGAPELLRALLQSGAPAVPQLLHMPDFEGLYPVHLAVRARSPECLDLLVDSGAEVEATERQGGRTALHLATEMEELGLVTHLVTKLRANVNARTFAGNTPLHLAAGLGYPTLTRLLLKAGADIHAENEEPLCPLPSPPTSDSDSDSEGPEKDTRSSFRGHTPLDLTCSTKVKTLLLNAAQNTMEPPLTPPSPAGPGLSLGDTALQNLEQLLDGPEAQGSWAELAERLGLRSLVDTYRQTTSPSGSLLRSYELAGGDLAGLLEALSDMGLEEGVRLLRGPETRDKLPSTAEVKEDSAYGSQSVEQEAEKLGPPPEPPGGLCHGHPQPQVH
Sequence of Nuclear factor NF-kappa-B complex (Homo sapiens) (Q04206 whole entry, looked up): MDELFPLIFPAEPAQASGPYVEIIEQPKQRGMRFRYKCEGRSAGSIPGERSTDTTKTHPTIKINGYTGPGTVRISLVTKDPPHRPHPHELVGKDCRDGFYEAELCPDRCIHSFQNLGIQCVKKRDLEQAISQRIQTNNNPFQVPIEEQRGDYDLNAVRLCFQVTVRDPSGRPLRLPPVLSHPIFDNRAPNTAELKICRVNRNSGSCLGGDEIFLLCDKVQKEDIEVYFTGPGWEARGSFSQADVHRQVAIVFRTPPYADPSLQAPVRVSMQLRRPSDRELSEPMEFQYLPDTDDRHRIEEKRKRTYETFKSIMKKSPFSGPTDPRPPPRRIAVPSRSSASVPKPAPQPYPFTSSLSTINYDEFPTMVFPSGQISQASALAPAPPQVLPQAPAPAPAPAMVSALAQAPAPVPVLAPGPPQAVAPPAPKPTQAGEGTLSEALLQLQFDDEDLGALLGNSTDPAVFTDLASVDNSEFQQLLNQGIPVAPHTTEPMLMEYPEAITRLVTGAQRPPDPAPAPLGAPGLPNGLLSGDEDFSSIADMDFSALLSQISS

RAW264.7 [16] = test: Inhibition of NO production in LPS-stimulated mouse RAW264.7 cells at 100 uM incubated for 18 hrs by Griess reagent-based assay; format: functional
[17] = Inhibition of LPS-induced NO production in mouse BV-2 cells […]; format: functional, cell-based
[18] = Inhibition of NO production in LPS-stimulated mouse BV-2 cells preincubated with compound for 1 hrs followed by LPS stimulation and measured after 24 hrs by Griess reagent-based assay; format: functional, cell-based
Rattus norvegicus = test: Antiinflammatory activity in Wistar rat assessed as inhibition of carrageenan-induced hind paw edema at 50 mg/kg, po pre-treated for 1 hrs followed by carrageenan administration and measured after 3 hrs by plethysmometer relative to control; format: functional; conditions: time 4 hrs

COc1cc2c(cc1O)C(Cc1ccc(O)c(Oc3ccc(C[C@@H]4NCCc5cc(OC)c(O)cc54)cc3)c1)NCC2 (some centres not stated)
inhibition [1]: 69.3%
inhibition [2]: 93.7%
inhibition [3]: 98.1%

COc1ccc2c(c1)[nH]c1c(/C=C/C(=O)O)nccc12
Activity (Mus musculus [4]): 12.5%

CC(C)CC(=O)NC[C@H]1CC[C@H](NC(=O)c2nc3ccccc3cc2O)[C@H](O)O1
IC50 [5]: 4.9 µM
IC50 [6]: 1400 nM

COC1O[C@@H]([C@@H]2c3cc4c(cc3CCN2C)OCO4)c2ccc3c(c21)OCO3 (some centres not stated)
inhibition at 10 µM [7]: 35.6%

O=C(C1C=CC(c2ccc3c(c2)OCO3)C(/C=C/c2ccc3c(c2)OCO3)C1C(=O)N1CCCCC1)N1CCCCC1 (configuration not stated)
IC50 (RAW264.7 [8]): 6.8 µM

C=C[C@@H]1[C@@H](O[C@@H]2O[C@H](CO)[C@@H](O)[C@H](O)[C@H]2O)OC=C(C(=O)OC)[C@@H]1C[C@@H]1NCCc2c1[nH]c1ccccc21
IC50 [9]: 8.3 µM

CC(=O)O[C@H]1CN(C)CC[C@H]1c1c(O)cc(O)c2c(=O)cc(C)oc12
inhibition (INH) (THP-1 [10]): 81.1%
inhibition (INH) (THP-1 [11]): 20.5%

COC1O[C@H]([C@@H]2c3cc4c(cc3CCN2C)OCO4)c2ccc3c(c21)OCO3 (some centres not stated)
inhibition at 10 µM [7]: 32.4%

C/C=C1/CN2[C@@H]3C[C@@]45c6ccccc6N[C@]4(O3)[C@@H]2C[C@@H]1[C@@H]5OC(C)=O
inhibition in vivo at 10 mg/kg (Mus musculus [12]): 41.9%
inhibition [13]: 79.2%

COC(=O)C1=C2Nc3c(O)cccc3[C@@]23CCN2C[C@@H]([C@H](C)O)[C@@H]1C[C@H]23 [SCHOLARICINE]
inhibition in vivo at 5 mg/kg (Mus musculus [14]): 42%

COc1cc2c(cc1O)-c1cc3ccc(OC)c(OC)c3c[n+]1CC2 [COLUMBAMINE]
inhibition [15]: 63.2%
inhibition at 100 µM (RAW264.7 [16]): 88.1%

COc1cc(/C=C/C(=O)CC(=O)/C=C/c2ccc(O)c(OC)c2)ccc1O [CURCUMIN]
IC50 [17]: 500 nM
IC50 [18]: 500 nM

COc1ccc2c(OC)c3ccoc3nc2c1 [EVOLITRINE]
inhibition in vivo at 50 mg/kg (Rattus norvegicus): 62%

CC(C)CC(=O)NC[C@H](O)CC[C@@H](CO)NC(=O)c1nc2ccccc2cc1O
IC50 [5]: 7.6 µM
IC50 [6]: 2100 nM
